Three compounds from ChEMBL document CHEMBL1133402, “Irreversible inhibition of type I dehydroquinase by substrates for type II dehydroquinase” (Bioorg Med Chem Lett, 2000) can be followed below.

Broadly, the Ki is the dissociation constant of the complex between target and ligand, obtained from inhibition or displacement. Low values mean a stronger hold on the target, high ones a looser hold on the target.

The target of assay [1] is T1, 3-dehydroquinate dehydratase (Escherichia coli K-12, UniProt P05194).
T1 sequence (P05194 whole entry): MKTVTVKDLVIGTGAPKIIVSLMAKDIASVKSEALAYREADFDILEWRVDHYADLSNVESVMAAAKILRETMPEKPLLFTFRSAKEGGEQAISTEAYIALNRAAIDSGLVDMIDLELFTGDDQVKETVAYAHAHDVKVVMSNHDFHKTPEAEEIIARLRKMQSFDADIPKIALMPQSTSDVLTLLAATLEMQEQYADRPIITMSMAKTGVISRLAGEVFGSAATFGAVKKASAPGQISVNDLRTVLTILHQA
Briefly: Tested for the binding affinity against dehydroquinase.

For assay [2], the target named is T2, 3-dehydroquinate dehydratase (Escherichia coli K-12) (UniProt P05194).
T2 sequence (whole entry): T1 sequence (P05194 whole entry)
Briefly: kcat/Km value was determined.

For assay [3], the target named is T2, 3-dehydroquinate dehydratase (Escherichia coli K-12). Put plainly: Tested for percent inactivation against dehydroquinase after 24 hr at 10 mM.
For assay [4] the target is unchanged. Put plainly: Tested for inhibitory activity against type I dehydroquinase; active.

The source made the active and inactive calls. The calls are words filed in the database; no cut-off is given here.

In assay [1], `O=C1C(O)C(O)CC(O)(C(=O)O)C1F` (centres undefined) returned a Ki of 80 µM. In addition, in assay [2], the k cat/Km came to 86000 M⁻¹ s⁻¹. Also, the Inactivation in assay [3] came to 45%. For the same compound, the result in assay [4] was Active.
The matching figures for `O=C1C(O)C(O)CC(O)(C(=O)O)C1Br` (centres undefined): 3700 µM, 367000 M⁻¹ s⁻¹, 70% and “Active”.
As to `O=C(O)C1=C(Br)C(=O)[C@@H](O)[C@H](O)C1`, the outcome in assay [4] was Active.
